The assay deals with HSV-2 virus (MS strain). The assay can be described thus: HSV-2 Cellomics Assay (immunofluorescence of HSV protein gD). It is filed as cell-based. The following applies: Human alphaherpesvirus 2, HSV-2 (MS strain, MOI 0.06) infected ARPE-19 cells, 16 hours. Here is the method: Compounds were tested for their ability to inhibit HSV-2 replication by monitoring the expression of the HSV protein gD using a high-throughput immunofluorescence-based assay. 10-dose, 3-fold serial dilutions of compounds were prepared at starting concentrations of 0.2 or 2 mM in 100% DMSO. 250 nl of compounds were spotted in quadruplicates onto black collagen-coated 384-well microplates with clear bottom (Greiner cat #781956) using a Labcyte ECHO acoustic dispenser. The final starting concentration in the assay was either […]. DMSO (no compound) and pritelivir were included on each microplate as negative and positive controls, respectively.
ARPE-19 cells (ATCC cat #CRL-2302) were maintained DMEM/F-12 Glutamax medium (Thermo Fisher Scientific cat #10565018) supplemented with 10% FBS (Corning cat #35-011-CV) and 1% Penicillin-Streptomycin (cat #30-002-CI). Prior to confluence, cells were transferred to a centrifuge tube and spun for 5 minutes at 1000 rpm. Cells were resuspended in assay medium (DMEM/F-12 Glutamax, 2% FBS, 1% Penicillin-Streptomycin) and counted. Cell density was adjusted to 150,000 cells/ml and infected with HSV-2 virus (MS strain, ATCC cat #VR-540) at a MOI of 0.06 in a 50 ml conical tube for 1 hour under constant rocking. Cells were then spun for 5 minutes at 1000 rpm and the media replaced with assay medium containing either 2% FBS or 10% human serum (EMD Millipore cat #S1-100ML). 50 μl of the infection suspension were added into microplate wells that were pre-spotted with compounds (7,500 cells per well). Plates were incubated for 16 hours at 37° C.
Cell culture medium was aspirated using a Biomek Fx and 50 μl of a paraformaldehyde solution (Electron Microscopy Sciences cat #15712-5) diluted to 4% in DPBS (Corning cat #21-031-CM) were added per well. After a 30-minute incubation at room temperature, plates were washed 4 times with 100 μl/well of PBS using a Biotek plate washer. A 1:500 solution of primary antibody (anti-HSV gD, Virusys cat #P1103) was prepared in permeabilization buffer (Invitrogen cat #00-8333-56) and 50 μl were added into wells. After a 1-hour incubation at room temperature, 50 μl of a 1:1000 solution of secondary antibody (Alexa Fluor 488 goat anti-mouse, Thermo Fisher Scientific cat #A11001) and DAPI (Thermo Fisher Scientific cat #62248) in permeabilization buffer were added into wells and plates were incubated in the dark at room temperature for 1 hour. Plates were washed 4 times again and 50 μl of DPBS were added to all wells prior to sealing the plates with a black adhesive seal. Fluorescence was measured on a Cellomics plate reader.
Data analysis was carried out using the Thermo Scientific HCS Studio software. Briefly, cells were identified using the DAPI nuclear stain and thresholds were set to filter cells out based on shape and size. A second threshold based on green fluorescence intensity (detection of HSV-2 gD) was set to identify HSV-2 infected cells. Data was reported as the average fluorescence intensity of HSV-2 infected cells. EC50 values were defined as the compound concentration that caused a 50% decrease in the average fluorescence intensity and was calculated using a sigmoidal dose-response model to generate curve fits.

[1] abbreviates: assay medium containing 2% FBS, read-out: EC50-HSV2-FBS.
The mark [2] stands for this setting: assay medium containing 10% human serum, read-out: EC50-HSV2-10% Human Serum.

Molecules are shown by their SMILES. Where two headings read alike, the source gives them in different places.

As a reminder, the EC50 is the concentration needed to bring the measured effect to its halfway point. Consider `N=S(=O)(c1cc2c(cc1F)CCN2C(=O)[C@@H]1Cc2ccc(-c3ccccn3)cc2C1)C1CC1` (stereo partly drawn) [Example 19, cyclopropyl(5-fluoro-1-((R)-5-(pyridin-2-yl)-2,3-dihydro-1H-indene-2-carbonyl)indolin-6-yl)(imino)-λ^6-sulfanone], for which the EC50 under setting [1] is 56 nM and the concentration for a half-maximal effect (EC50) under setting [2] came to 453 nM.

As to `COCC[S@](=N)(=O)c1cc2c(cc1F)CCN2C(=O)[C@@H]1Cc2ccc(-c3ccccn3)cc2C1` [Example 15, (S)-(5-fluoro-1-((R)-5-(pyridin-2-yl)-2,3-dihydro-1H-indene-2-carbonyl)indolin-6-yl)(imino)(2-methoxyethyl)-λ6-sulfanone], the EC50 by setting is: under setting [1], 42 nM; under setting [2], 87 nM.

For `CCC[S@@](=N)(=O)c1cc2c(cc1F)CCN2C(=O)[C@H]1Cc2cc(-c3ccccn3)ccc2O1` [Example 12, (R)-(5-fluoro-1-((R)-5-(pyridin-2-yl)-2,3-dihydrobenzofuran-2-carbonyl)indolin-6-yl)(imino)(propyl)-λ^6-sulfanone], the EC50 reads like this: under setting [1], 35 nM; under setting [2], 98 nM.

As to `COCC[S@@](=N)(=O)c1cc2c(cc1F)CCN2C(=O)[C@@H]1Cc2ccc(-c3ccccn3)cc2C1` [Example 14, (R)-(5-fluoro-1-((R)-5-(pyridin-2-yl)-2,3-dihydro-1H-indene-2-carbonyl)indolin-6-yl)(imino)(2-methoxyethyl)-λ^6-sulfanone], the EC50 runs as follows: under setting [1], 25 nM; under setting [2], 54 nM.
